Earlier results, collected in patent US8758823B2, “Method for obtaining non-water-soluble powders having antimicrobial activity, the powders thus obtained and the antibacterial use thereof” (Poly-Bio, priority 2009, dated 2014).

Tested on: Staphylococcus aureus
Conditions: quaternary ammonium chloride in aqueous solution; AKZO NOBEL guideline formulation

CCCCCCCCCC[N+](C)(C)CCCCCCCCCC.[Cl-] [ARQUAD 210-50, didecyl dimethyl ammonium chloride]
concentration recommended to obtain the same result (reduction greater than 5 Log): 12 to 16 ppm
